In patent US5962525A, “6,7-disubstituted-2-aminotetralines active as immunomodulators and pharmaceutical compositions containing same” (Sigma-Tau, priority 1990, dated 1999):
“And” between values parts separate entries of the source, which are not always exact repeats. Identical values can stand only once. Like-named read-outs stand apart in the source and are kept apart here.

How the values were obtained:
[1] = system: splenocytes; assay: "In vitro-ex vivo" effect on the mytogen (PHA, LPS)-induced splenocyte proliferation in mice; design: species or system mouse (B6 D2 F1); details: 25 mg/kg/day i.p.
Procedure: Assessment of the "in vitro-ex vivo" effect of ST 557, ST 563, ST 608 on the mytogen (PHA, LPS)-induced splenocyte proliferation in mice
Male B6 D2 F1 mice aged 6-10 weeks (4 animals per group) were used.
The compounds were administered i.p. 25 mg/kg/day, from day -5 to -1 (spleen excision at day 0).
PHA (active on T lymphocytes) and LPS (active on B lymphocytes) were used as mytogens. Each mytogen was tested at three different concentrations (suboptimal, optimal, superoptimal): 0.5, 4 and 6 mcg/ml/well and 0.5, 150 and 500 mcg/ml/well, respectively.
The experimental procedure was conducted substantially as described by Kirchner et al., "Splenic suppressor macrophages induced in mice by injection of C. parvum", J. Immunol., 1975, 115: 1212.
In particular, the cell suspensions obtained from the spleens of the animals of the same group were pooled and the cell concentration was adjusted to 5×10^6 cells/ml.
To volumes of 0.1 ml of each sample, equal volumes of the mytogen preparations were added so as to obtain, for each mytogen, the previously indicated final concentrations.
Each sample was prepared in triplicate in U-bottom microtiters. A control, to which 0.1 ml of medium were added instead of the mytogen, was also prepared. The control permits the extent of spontaneous proliferation in the absence of stimulation to be assessed.
The samples were incubated at 37° C. for 48 hours and then they were pulsed with 20 μl ^3 H-TdR (25 μCi/ml).
After 18 hours of further incubation, the cells were collected on filters and counted in a beta-counter.
The results of each sample are expressed by calculating the value of the area under the curve (AUC) obtained by plotting the values of the incorporated radioactivity (in cpm) versus the various concentrations of each mytogen.
In addition to AUC, the stimulation index (SI) is also considered, that is defined as follows. [formula]

[2] = system: murine peritoneal exudate cells (PEC); assay: "In vitro-ex vivo" effect on the phagocytic activity of exudate peritoneal cells (SRBC phagocytosis); design: species or system mouse (B6 D2 F1); details: for SRBC per phagocytizing cell: average number of SRBC in each phagocyte
Procedure: Assessment of the "in vitro-ex vivo" effect of ST 557, ST 563, ST 564, ST 570, ST 608 and ST 626 on the phagocytic activity of exudate peritoneal cells (PEC)
Male B6 D2 F1 mice aged 6-8 weeks (5 animals each group) were used.
The compounds were administered i.p. (25 mg/kg/day), ST 557, ST 563 and ST 626 were also administered per os (100 mg/kg/day) from day -5 to day -1 (PEC harvesting at day 0).
The experimental procedure was substantially the same as that described by Williams et al., in "Methods in Immunology and Immunochemistry", Acad. Press. 5: 261 (1976).
In particular, 24 hours following the end of the treatment, PECs from each experimental group were harvested, pooled and their concentration was adjusted to 4×10^6 cells/ml.
To volumes of 250 μl of each PEC sample were added equal volumes of 0.4% SRBC (Sheep Red Blood Cells) opsonized with hyperimmune serum.
The samples (duplicate) were incubated for 1 hour and then subjected to hypotonic shock in order to remove the non-phagocytized SRBC. After restoring the osmolarity, the phagocytes were cytocentrifuged, stained with a differential dye and observed under the microscope.
The results were expressed as:
(a) percentage of cells that have phagocytized with respect to 100 phagocytizing cells;
(b) total number of phagocytized SRBC;
(c) average number of SRBC in each phagocyte.

[3] = system: murine peritoneal macrophages; tumor targets Daudi and CEM-CM3; assay: "In vitro-ex vivo" effect on the cytotoxic activity of peritoneal macrophages (lysis of 3H-TdR labelled tumor cells); design: species or system mouse (B6 D2 F1, C57B16); tumor targets human
Procedure: Assessment of the "in vitro-ex vivo" effect of ST 557, ST 563, ST 570 and ST 626 on the cytotoxic activity of peritoneal macrophages (M)
Male hybrid B6 D2 F1 aged 7-9 weeks and male inbred mice C57B16 aged 8 weeks were used (4 animals/group).
All the compounds were administered i.p. (25 mg/kg/day). ST 557 was also administered per os (100 mg/kg/day) from day -5 to day -1 (peritoneal exudate cell [PEC] harvesting at day 0).
PEC were obtained from sacrificed animals, 24 hours following the end of treatment, via repeated washings of the abdominal cavity. The peritoneal exudates obtained from each group of animals were pooled.
The macrophage percentage was assessed by counting in a Burker chamber; cell suspensions (concentration=2×10^6 M/ml) were prepared.
The macrophage cytotoxic activity was assessed using the following two tumor cell lines as targets: Daudi, derived from a human lymphoblastoma and CEM-CM3, derived from human lymphoblastic leukemia (both lines are disclosed in ATCC--American Type Culture Collection--Cell lines of hybridoma, 5th Ed.--1985).
The experimental procedure is substantially the same as that described by Herscowitz, H. B. (1981)--Manual of Macrophage Methodology. Dekker M, Editor.
In particular, samples of cell lines were labelled with ^3 H-TdR (tritiated thymidine) and their concentration was adjusted to 5×10^4 cells/ml. They were then added to the macrophage preparations (using 96-well microtiter plates) and the volumes were adjusted so as to obtain Effector (macrophage)/Target (tumor cell) ratios of 20:1; 40:1 and 80:1 in an overall volume of 0.3 ml/well.
Three replicates for each sample were prepared; after 48 and 72 hours of incubation at 37° C. in 5% CO2. Aliquots of 0.1 ml of supernatant were drawn out from each well and counted in a β-counter.
The macrophage cytotoxic activity results in a tumor cell lysis that causes the release of the radioactivity incorporated by the cells into the supernatant.
Based on the βeta-counter data (in cpm) this activity is expressed as the percentage of radioactivity released following lysis with respect to the radioactivity incorporated by the tumor cells.
The relevant formulas are as follows: [formula]
The measures carried out on the samples account for a certain degree of lysis occurring spontaneously in cultured tumor cells not exposed to macrophages. Total radioactivity incorporated by the tumor cells is calculated by conducting a lysis with 1% SDS in distilled water.

[4] = system: murine peritoneal exudate cells (PEC); assay: "In vitro-ex vivo" effect on the phagocytic activity of exudate peritoneal cells (SRBC phagocytosis); design: species or system mouse (B6 D2 F1); details: 26 mg/kg/day i.p. (so in the source)
[5] = system: peritoneal macrophages of treated mice; target tumor cells; assay: "In vitro-ex vivo" effect on the cytostatic activity of peritoneal macrophages; design: species or system mouse (B6 D2 F1); tumor targets human
Procedure: Assessment of the "in vitro-ex vivo" effect of ST 557, ST 563 and ST 570 on the cytostatic activity of peritoneal macrophages
Male B6 D2 F1 mice aged 7-9 weeks (5 animals per group) were used.
The compounds were administered i.p. (25 mg/kg/day), ST 557 and ST 563 were also administered per os (100 mg/kg/day) from day -5 to day -1 (peritoneal cell harvesting at day 0).
The macrophages and target tumor cell lines were prepared as in test 1 and their concentrations were adjusted to 1×10^6 M/ml and 5×10^4 cell/ml, respectively.
Volumes of tumor cells were added to the macrophage preparations so as to obtain Effector/Target ratios of 10:1, 20:1 and 40:1.
Each sample was pulsed with ^3 H-TdR for 18 hours in order to label the tumor cells, which were then collected on filters and counted in a beta-counter.
The macrophage cytostatic activity is expressed as percentage inhibition of tumor cell replication, by assessing the radioactivity incorporated by the tumor cells in each sample with respect to the maximum radioactivity incorporated by a sample consisting of tumor cells only. [formula]

[6] = Tolerability after oral or intravenous administration; design: species or system mouse (Swiss albino); details: mouse, in vivo, 7 days observation, read-out: Tolerability, dose
Procedure: The test was conducted in male Swiss albino mice weighing 22-24 g.
A group of animals (4 animals/dose) which had been kept fasting for 18 hours, were orally administered the compounds ST 557, ST 563, ST 564 and ST 570 dissolved in twice distilled water.
A further group of animals, which had free access to food and water, were administered intravenously the same compounds dissolved in saline it pH 7. All the animals were kept under observation for 7 days.

[7] = 48 hours, E/T 20:1, 25 mg/kg/day i.p., B6 D2 F1
[8] = 48 hours, E/T 20:1, 25 mg/kg/day i.p., repeated experiment, B6 D2 F1
[9] = 48 hours, E/T 20:1, 25 mg/kg/day i.p., repeated experiment, C57B16 mice
[10] = 48 hours, E/T 40:1, 25 mg/kg/day i.p., B6 D2 F1
[11] = 48 hours, E/T 40:1, 25 mg/kg/day i.p., repeated experiment, B6 D2 F1
[12] = 48 hours, E/T 40:1, 25 mg/kg/day i.p., repeated experiment, C57B16 mice
[13] = 48 hours, E/T 80:1, 25 mg/kg/day i.p., repeated experiment, B6 D2 F1
[14] = 72 hours, E/T 20:1, 25 mg/kg/day i.p., B6 D2 F1
[15] = 72 hours, E/T 20:1, 25 mg/kg/day i.p., repeated experiment, B6 D2 F1
[16] = 72 hours, E/T 20:1, 25 mg/kg/day i.p., repeated experiment, C57B16 mice
[17] = 72 hours, E/T 40:1, 25 mg/kg/day i.p., B6 D2 F1
[18] = 72 hours, E/T 40:1, 25 mg/kg/day i.p., repeated experiment, B6 D2 F1
[19] = 72 hours, E/T 40:1, 25 mg/kg/day i.p., repeated experiment, C57B16 mice
[20] = 72 hours, E/T 80:1, 25 mg/kg/day i.p., repeated experiment, B6 D2 F1

Compound: CCCNC1CCc2cc(OC(C)=O)c(OC(C)=O)cc2C1 (stereo not shown) [ST 608, 2-N-propylamino-6,7-diacetoxytetraline]
- AUC (area under curve, incorporated radioactivity vs mytogen concentration) ([1]; LPS): 10333 ± 807 ×10^-3 and 18054 ± 970 ×10^-3 and 14490 ± 433 ×10^-3 and 15892 ± 339 ×10^-3
- S.I. (stimulation index) ([1]; LPS): 1.27 and 1.10 and 1.20 and 1.06
- AUC (area under curve, incorporated radioactivity vs mytogen concentration) ([1]; PHA): 183 ± 6 ×10^-3 and 128 ± 4 ×10^-3 and 146 ± 4 ×10^-3 and 233 ± 2 ×10^-3
- S.I. (stimulation index) ([1]; PHA): 1.11 and 1.04 and 1.07 and 1.12
- Fagocytizing cells ([2]; 25 mg/kg/day i.p.): 41.0%
- Total n° SRBC phagocytized ([2]; 25 mg/kg/day i.p.): 137.5
- SRBC per phagocytizing cell ([2]; 25 mg/kg/day i.p.): 3.30

Compound: COc1cc2c(cc1F)CCC(N)C2 (stereo not shown) [ST 626, 2-amino-6-fluoro-7-methoxytetraline]
- % lysis of tumor target [3, 7]: 7.4 ± 0.2%
- % lysis of tumor target [3, 8]: 8.0 ± 0.8%
- % lysis of tumor target [3, 9]: 11.8 ± 0.6%
- % lysis of tumor target [3, 10]: 12.8 ± 0.8%
- % lysis of tumor target [3, 11]: 18.7 ± 0.1% and 11.6 ± 0.7%
- % lysis of tumor target [3, 12]: 12.7 ± 0.1%
- % lysis of tumor target [3, 13]: 18.8 ± 0.1% and 28.0 ± 5.6%
- % lysis of tumor target [3, 14]: 10.8 ± 0.3%
- % lysis of tumor target [3, 15]: 12.3 ± 0.6%
- % lysis of tumor target [3, 16]: 12.6 ± 0.1%
- % lysis of tumor target [3, 17]: 17.6 ± 0.8%
- % lysis of tumor target [3, 18]: 27.5 ± 0.6% and 14.3 ± 0.6%
- % lysis of tumor target [3, 19]: 13.5 ± 0.7%
- % lysis of tumor target [3, 20]: 28.0 ± 0.7% and 32.0 ± 4.3%
- Fagocytizing cells ([2]; 25 mg/kg/day i.p.): 41.0%
- Total n° SRBC phagocytized ([2]; 25 mg/kg/day i.p.): 137.5
- SRBC per phagocytizing cell ([2]; 25 mg/kg/day i.p.): 3.30
- Fagocytizing cells ([2]; 100 mg/kg/day os): 57.0%
- Total n° SRBC phagocytized ([2]; 100 mg/kg/day os): 222.0
- SRBC per phagocytizing cell ([2]; 100 mg/kg/day os): 3.89

Compound: CCN(CC(O)c1ccccc1)C1CCc2cc(OC)c(OC)cc2C1 (stereo not shown) [ST 570, 2-[(N-ethyl, N-2-hydroxy-2-phenylethyl)amino]-6,7-dimethoxytetraline]
- Fagocytizing cells [4]: 41.0%
- SRBC per phagocytizing cell ([4]; average number of SRBC in each phagocyte): 3.3
- % of inhibition of target tumor growth ([5]; E/T 20:1, 25 mg/kg/day i.p.): 38.3 ± 2.5%
- % of inhibition of target tumor growth ([5]; E/T 40:1, 25 mg/kg/day i.p.): 71.0 ± 2.4%
- MTD at 168 h ([6]; iv): > 20 mg/kg
- MTD at 168 h ([6]; po, os, fasting 18 hours): > 50 mg/kg
- % lysis of tumor target [3, 7]: 14.0 ± 0.7%
- % lysis of tumor target [3, 8]: 9.0 ± 0.4%
- % lysis of tumor target [3, 9]: 8.8 ± 1.2%
- % lysis of tumor target [3, 10]: 34.7 ± 1.2%
- % lysis of tumor target [3, 11]: 10.9 ± 1.0%
- % lysis of tumor target [3, 12]: 13.0 ± 0.5%
- % lysis of tumor target [3, 13]: 19.0 ± 1.0%
- % lysis of tumor target ([3]; 48 hours, E/T 80:1, 25 mg/kg/day i.p., repeated experiment, C57B16 mice): 14.6 ± 0.6%
- % lysis of tumor target [3, 14]: 19.3 ± 0.7%
- % lysis of tumor target [3, 15]: 13.2 ± 0.2%
- % lysis of tumor target [3, 16]: 10.8 ± 1.5%
- % lysis of tumor target [3, 17]: 45.4 ± 2.1%
- % lysis of tumor target [3, 18]: 15.7 ± 0.8%
- % lysis of tumor target [3, 19]: 14.9 ± 0.3%
- % lysis of tumor target [3, 20]: 25.3 ± 1.0%
- % lysis of tumor target ([3]; 72 hours, E/T 80:1, 25 mg/kg/day i.p., repeated experiment, C57B16 mice): 16.2 ± 0.8%
